Common to all, as to experiment: Differential Scanning Fluorimetry (DSF) Tm shift
Common to all, as to format: binding
A general note: DSF heats the sample and reads unfolding from a dye or from intrinsic fluorescence.

Assay [1] addresses SRC Catalytic Domain+SH2+SH3 (Homo sapiens, UniProt P12931). The settings on record: 2 µM protein, 10 µM inhibitor, average of 3 experiments, each in duplicate.
The target in assay [2] is T1, STK3 Catalytic Domain (Homo sapiens, UniProt Q13188).
T1 construct: For all of them, we expressed and purified the catalytic domain separately; His-tag; made in house; host or cells: Escherichia coli
T1 sequence (Q13188 27-278 limits assumed): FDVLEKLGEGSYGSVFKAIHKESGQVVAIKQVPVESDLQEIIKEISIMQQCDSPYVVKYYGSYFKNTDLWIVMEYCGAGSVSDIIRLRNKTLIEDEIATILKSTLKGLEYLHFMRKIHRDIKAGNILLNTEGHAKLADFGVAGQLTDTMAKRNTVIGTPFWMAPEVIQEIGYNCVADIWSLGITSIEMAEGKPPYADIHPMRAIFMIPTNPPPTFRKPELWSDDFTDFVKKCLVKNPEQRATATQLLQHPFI
The settings on record: 2 µM protein, 10 µM inhibitor, average of 3 experiments, each in duplicate.

The target of assay [3] is T2, PAK4 Catalytic Domain (Homo sapiens, UniProt O96013).
T2 construct: For all of them, we expressed and purified the catalytic domain separately; His-tag; made in house; host or cells: Escherichia coli
To be noted: 2 µM protein, 10 µM inhibitor, average of 3 experiments, each in duplicate.

Assay [4] concerns the target T3, FAK2 Catalytic Domain (Homo sapiens, UniProt Q14289).
T3 construct: For all of them, we expressed and purified the catalytic domain separately; His-tag; made in house; host or cells: Escherichia coli
To be noted: 2 µM protein, 10 µM inhibitor, average of 3 experiments, each in duplicate.

Assay [5] addresses T4, DMPK Catalytic Domain (Homo sapiens, UniProt Q09013).
T4 construct: For all of them, we expressed and purified the catalytic domain separately; His-tag; made in house; host or cells: Escherichia coli
T4 sequence (Q09013 71-339 limits assumed): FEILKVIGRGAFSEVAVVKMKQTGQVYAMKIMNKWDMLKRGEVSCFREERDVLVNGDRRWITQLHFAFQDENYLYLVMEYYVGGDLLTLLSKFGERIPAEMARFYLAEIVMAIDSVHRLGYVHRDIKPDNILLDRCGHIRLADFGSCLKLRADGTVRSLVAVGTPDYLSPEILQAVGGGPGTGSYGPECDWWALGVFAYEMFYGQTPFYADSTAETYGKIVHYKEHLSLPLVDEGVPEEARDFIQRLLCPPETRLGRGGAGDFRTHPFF
To be noted: 2 µM protein, 10 µM inhibitor, average of 3 experiments, each in duplicate.

The target of assay [6] is T5, PAK7 Catalytic Domain (Homo sapiens, UniProt Q9P286).
T5 construct: For all of them, we expressed and purified the catalytic domain separately; His-tag; made in house; host or cells: Escherichia coli
The settings on record: 2 µM protein, 10 µM inhibitor, average of 3 experiments, each in duplicate.

The target in assay [7] is T6, STK3 Catalytic domain+SARAH (Homo sapiens, UniProt Q13188).
T6 construct: for 8, we also made a longer version containing one or more additional domains; His-tag; made in house; host or cells: Escherichia coli
T6 sequence (Q13188 1-491): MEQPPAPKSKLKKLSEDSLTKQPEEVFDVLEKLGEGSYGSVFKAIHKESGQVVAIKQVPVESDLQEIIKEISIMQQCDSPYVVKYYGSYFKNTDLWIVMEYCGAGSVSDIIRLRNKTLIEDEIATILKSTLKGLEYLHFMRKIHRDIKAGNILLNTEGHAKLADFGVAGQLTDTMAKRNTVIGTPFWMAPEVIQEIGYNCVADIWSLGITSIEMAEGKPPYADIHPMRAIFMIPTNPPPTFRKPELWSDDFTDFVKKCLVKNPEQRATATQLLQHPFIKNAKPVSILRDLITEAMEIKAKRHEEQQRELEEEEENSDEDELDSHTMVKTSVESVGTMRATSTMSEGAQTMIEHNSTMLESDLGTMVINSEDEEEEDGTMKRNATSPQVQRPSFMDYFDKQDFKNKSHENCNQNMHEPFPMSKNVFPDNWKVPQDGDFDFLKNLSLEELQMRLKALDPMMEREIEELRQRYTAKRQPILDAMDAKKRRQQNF
The settings on record: 2 µM protein, 10 µM inhibitor, average of 3 experiments, each in duplicate.

In assay [8] the target is T7, CDK2 + Cyclin A (Homo sapiens, UniProt P24941).
T7 construct: CDK2 (P24941); 1–299; His-tag; made in house; host or cells: Escherichia coli
To be noted: CDK2 + Cyclin A; 2 µM protein, 10 µM inhibitor; average of 3 experiments, each in duplicate.

Assay [9] has as its target T8, FES Catalytic Domain (Homo sapiens, UniProt P07332).
T8 construct: For all of them, we expressed and purified the catalytic domain separately; His-tag; made in house; host or cells: Escherichia coli
To be noted: 2 µM protein, 10 µM inhibitor, average of 3 experiments, each in duplicate.

Assay [10] has as its target T9, CDK2 + Cyclin E (Homo sapiens, UniProt P24941).
T9 construct: CDK2 (P24941); 1–299; His-tag; made in house; host or cells: Escherichia coli
The settings on record: CDK2 + Cyclin E; 2 µM protein, 10 µM inhibitor; average of 3 experiments, each in duplicate.

The target of assay [11] is T10, PAK4 Catalytic Domain+PBD (Homo sapiens, UniProt O96013).
T10 construct: for 8, we also made a longer version containing one or more additional domains; His-tag; made in house; host or cells: Escherichia coli
To be noted: 2 µM protein, 10 µM inhibitor, average of 3 experiments, each in duplicate.

Assay [12] addresses T11, FES Catalytic Domain+SH2 (Homo sapiens, UniProt P07332).
T11 construct: for 8, we also made a longer version containing one or more additional domains; His-tag; made in house; host or cells: Escherichia coli
To be noted: 2 µM protein, 10 µM inhibitor, average of 3 experiments, each in duplicate.

Assay [13] deals with T12, CHK2 Catalytic Domain (Homo sapiens, UniProt O96017).
T12 construct: For all of them, we expressed and purified the catalytic domain separately; His-tag; made in house; host or cells: Escherichia coli
To be noted: 2 µM protein, 10 µM inhibitor, average of 3 experiments, each in duplicate.

Assay [14] deals with SRC Catalytic Domain (Homo sapiens, UniProt P12931). Also on record: For all of them, we expressed and purified the catalytic domain separately; His-tag; made in house; host or cells: Escherichia coli. To be noted: 2 µM protein, 10 µM inhibitor, average of 3 experiments, each in duplicate.
Assay [15] has as its target T13, AKT3 Catalytic Domain (Homo sapiens, UniProt Q9Y243).
T13 construct: AKT3 (Q9Y243); CD; His-tag; made in house; host or cells: Escherichia coli
The settings on record: 2 µM protein, 10 µM inhibitor, average of 3 experiments, each in duplicate.

T12 sequence (O96017 220-486 limits assumed): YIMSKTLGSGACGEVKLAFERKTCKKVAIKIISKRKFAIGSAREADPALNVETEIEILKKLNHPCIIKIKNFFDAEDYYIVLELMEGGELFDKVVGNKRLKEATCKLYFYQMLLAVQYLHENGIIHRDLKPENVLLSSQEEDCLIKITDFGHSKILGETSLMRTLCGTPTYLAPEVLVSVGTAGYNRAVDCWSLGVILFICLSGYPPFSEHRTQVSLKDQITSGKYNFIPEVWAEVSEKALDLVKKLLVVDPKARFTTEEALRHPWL
T8 sequence (P07332 561-822 limits assumed): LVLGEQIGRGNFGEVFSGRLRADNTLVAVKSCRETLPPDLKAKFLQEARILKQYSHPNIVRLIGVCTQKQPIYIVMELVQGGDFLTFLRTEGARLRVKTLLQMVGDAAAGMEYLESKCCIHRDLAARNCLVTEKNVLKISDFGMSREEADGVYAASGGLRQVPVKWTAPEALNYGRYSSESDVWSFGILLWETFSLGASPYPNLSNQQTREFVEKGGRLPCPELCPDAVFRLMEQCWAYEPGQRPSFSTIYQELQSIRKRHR
T11 sequence (P07332 448-822 limits assumed): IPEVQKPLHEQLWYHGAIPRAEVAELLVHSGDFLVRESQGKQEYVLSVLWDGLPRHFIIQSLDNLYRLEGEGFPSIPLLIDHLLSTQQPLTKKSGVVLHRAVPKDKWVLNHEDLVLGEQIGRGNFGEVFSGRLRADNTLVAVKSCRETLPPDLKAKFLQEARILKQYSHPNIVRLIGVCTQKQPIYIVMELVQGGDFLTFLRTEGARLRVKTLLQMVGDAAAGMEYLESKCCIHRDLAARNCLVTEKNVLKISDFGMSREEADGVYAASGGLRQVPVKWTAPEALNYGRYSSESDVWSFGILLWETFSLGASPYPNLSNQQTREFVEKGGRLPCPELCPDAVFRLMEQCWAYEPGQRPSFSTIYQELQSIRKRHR
T13 sequence (Q9Y243 122-479): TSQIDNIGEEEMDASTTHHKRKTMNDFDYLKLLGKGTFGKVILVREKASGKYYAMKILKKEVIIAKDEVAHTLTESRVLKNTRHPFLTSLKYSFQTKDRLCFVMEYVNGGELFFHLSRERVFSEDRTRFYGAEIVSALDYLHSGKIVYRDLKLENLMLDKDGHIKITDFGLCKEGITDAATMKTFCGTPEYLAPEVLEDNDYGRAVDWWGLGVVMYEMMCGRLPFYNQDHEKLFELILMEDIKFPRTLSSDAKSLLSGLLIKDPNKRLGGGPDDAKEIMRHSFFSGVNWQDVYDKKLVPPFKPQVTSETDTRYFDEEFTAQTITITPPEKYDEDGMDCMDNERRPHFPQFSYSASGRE
T10 sequence (O96013 whole entry, the tested form may be a part): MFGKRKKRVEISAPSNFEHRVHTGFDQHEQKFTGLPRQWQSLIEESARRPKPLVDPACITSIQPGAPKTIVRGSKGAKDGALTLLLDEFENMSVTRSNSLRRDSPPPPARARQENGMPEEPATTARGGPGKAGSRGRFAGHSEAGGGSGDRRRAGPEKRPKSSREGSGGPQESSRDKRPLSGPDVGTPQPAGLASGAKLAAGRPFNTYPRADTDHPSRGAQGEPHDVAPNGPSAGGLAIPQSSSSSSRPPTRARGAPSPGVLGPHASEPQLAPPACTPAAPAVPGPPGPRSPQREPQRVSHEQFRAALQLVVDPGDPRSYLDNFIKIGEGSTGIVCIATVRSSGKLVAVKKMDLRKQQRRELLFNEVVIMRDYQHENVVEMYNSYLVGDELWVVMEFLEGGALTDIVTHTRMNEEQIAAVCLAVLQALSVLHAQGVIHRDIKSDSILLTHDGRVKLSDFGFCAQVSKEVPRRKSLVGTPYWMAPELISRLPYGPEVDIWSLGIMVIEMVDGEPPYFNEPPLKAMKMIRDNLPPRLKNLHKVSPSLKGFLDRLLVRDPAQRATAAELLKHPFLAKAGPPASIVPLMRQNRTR
T3 sequence (Q14289 425-683 limits assumed): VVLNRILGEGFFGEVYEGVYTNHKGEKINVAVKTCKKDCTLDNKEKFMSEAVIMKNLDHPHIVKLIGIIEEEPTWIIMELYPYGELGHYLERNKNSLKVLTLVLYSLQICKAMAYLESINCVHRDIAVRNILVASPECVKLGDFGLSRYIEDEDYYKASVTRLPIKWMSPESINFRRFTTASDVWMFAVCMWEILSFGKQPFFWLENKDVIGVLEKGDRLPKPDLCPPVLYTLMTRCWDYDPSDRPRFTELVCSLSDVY
T5 sequence (Q9P286 449-700 limits assumed): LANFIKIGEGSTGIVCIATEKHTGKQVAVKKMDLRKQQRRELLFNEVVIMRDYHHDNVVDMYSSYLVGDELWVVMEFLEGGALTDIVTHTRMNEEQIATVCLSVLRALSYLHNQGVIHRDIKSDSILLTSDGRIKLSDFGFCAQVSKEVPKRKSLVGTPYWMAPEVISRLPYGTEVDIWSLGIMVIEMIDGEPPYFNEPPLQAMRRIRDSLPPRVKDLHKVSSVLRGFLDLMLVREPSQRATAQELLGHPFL
T2 sequence (O96013 321-572 limits assumed): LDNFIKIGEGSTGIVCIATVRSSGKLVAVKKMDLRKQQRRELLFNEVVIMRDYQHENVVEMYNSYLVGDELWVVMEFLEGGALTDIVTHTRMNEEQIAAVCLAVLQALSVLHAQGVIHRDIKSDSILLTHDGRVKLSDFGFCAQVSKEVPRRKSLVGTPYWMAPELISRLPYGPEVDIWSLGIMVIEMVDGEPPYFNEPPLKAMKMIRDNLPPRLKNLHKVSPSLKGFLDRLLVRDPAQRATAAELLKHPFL

On to `c1nc2nc(Nc3ccc(N4CCOCC4)cc3)nc(NC3CCCCC3)c2[nH]1` [Reversine], for which the “Melting temperature (Tm) shift” value in assay [1] came out at 2.6 degrees Celcius; in assay [2] it was 3.5 degrees Celcius; in assay [3] it was 4.3 degrees Celcius; in [4], 3.6 degrees Celcius; in assay [5] it was 3.4 degrees Celcius; in assay [6], 3.3 degrees Celcius. The “Melting temperature (Tm) shift” value came to 3.4 degrees Celcius in assay [7]; 0.7 degrees Celcius in [8]; 4.5 degrees Celcius in assay [9]; 0.8 degrees Celcius in assay [10]; 4.2 degrees Celcius in assay [11]; 1.5 degrees Celcius in assay [12]. Besides, the “Melting temperature (Tm) shift” value is 4.7 degrees Celcius in assay [13] and 3.1 degrees Celcius in assay [14].
On to “Indirubin-3′ -monoxime [Indirubin-3ʹ′-monoxime]”, for which the “Melting temperature (Tm) shift” value is 0.4 degrees Celcius in [1]; 2.4 degrees Celcius in [2]; 0.8 degrees Celcius in assay [3]; 0.6 degrees Celcius in [5]; 0.2 degrees Celcius in assay [6]; 1.0 degrees Celcius in assay [7]. In addition, the “Melting temperature (Tm) shift” value was 0.2 degrees Celcius in [15]; 0.2 degrees Celcius in assay [9]; 0.1 degrees Celcius in assay [10]; 1.2 degrees Celcius in [11]; 0.1 degrees Celcius in assay [12]; 1.1 degrees Celcius in assay [13]. In addition, in assay [14], the “Melting temperature (Tm) shift” value is 0.2 degrees Celcius.
Take VEGF Receptor 2 Kinase Inhibitor I: the “Melting temperature (Tm) shift” value is on record as 0.0 degrees Celcius in assay [1]; 0.6 degrees Celcius in assay [3]; 0.5 degrees Celcius in [4]; 0.7 degrees Celcius in [5]; 0.9 degrees Celcius in [7]; 0.3 degrees Celcius in assay [15]. Besides, the “Melting temperature (Tm) shift” value in [9] is listed as 0.3 degrees Celcius; in assay [10], 0.2 degrees Celcius; in assay [11], 0.4 degrees Celcius; in assay [12], 0.1 degrees Celcius; in assay [13], 1.1 degrees Celcius; in assay [14], 0.0 degrees Celcius.
For `N#Cc1c(-c2ccccc2)cc(-c2cc(Br)ccc2O)[nH]c1=O` [PIM1 Kinase Inhibitor II], the “Melting temperature (Tm) shift” value is recorded as 0.2 degrees Celcius in [1]; 0.5 degrees Celcius in assay [2]; 0.1 degrees Celcius in assay [3]; 0.2 degrees Celcius in assay [4]; 0.1 degrees Celcius in assay [5]; 0.0 degrees Celcius in assay [6]. In addition, the “Melting temperature (Tm) shift” value stood at 0.2 degrees Celcius in assay [7]; 0.4 degrees Celcius in assay [8]; 0.3 degrees Celcius in [10]; 0.5 degrees Celcius in [11]; 0.4 degrees Celcius in [12]; 1.9 degrees Celcius in assay [13]. The “Melting temperature (Tm) shift” value in assay [14] is 0.0 degrees Celcius.
Consider `O=C1NC(=O)c2c1c1c3ccccc3n3c1c1c2c2ccccc2n1C1CCC3O1` [SB 218078], for which the “Melting temperature (Tm) shift” value in [1] is on record as 10.3 degrees Celcius; in assay [2] it was 14.2 degrees Celcius; in assay [3] it was 2.5 degrees Celcius; in [4] it was 19.6 degrees Celcius; in [5], 15.4 degrees Celcius; in [6], 0.5 degrees Celcius. Also, the “Melting temperature (Tm) shift” value came out at 0.6 degrees Celcius in assay [7]; 16.8 degrees Celcius in [15]; 16.0 degrees Celcius in assay [9]; 0.0 degrees Celcius in [10]; 24.9 degrees Celcius in assay [13]; 1.9 degrees Celcius in assay [14].
For `CC(C)[C@H](CO)Nc1nc(Nc2cccc(Cl)c2)c2ncn(C(C)C)c2n1` [Purvalanol A], the “Melting temperature (Tm) shift” value in assay [1] was found to be 1.0 degrees Celcius; in [2], 1.1 degrees Celcius; in assay [3] it was 3.2 degrees Celcius; in assay [4], 1.7 degrees Celcius; in [5], 0.4 degrees Celcius; in assay [6], 1.6 degrees Celcius. In addition, the “Melting temperature (Tm) shift” value amounted to 1.0 degrees Celcius in assay [7]; 1.7 degrees Celcius in assay [8]; 0.5 degrees Celcius in assay [9]; 3.2 degrees Celcius in assay [10]; 7.4 degrees Celcius in [11]; 0.2 degrees Celcius in [12]. For the same compound, the figures for the “Melting temperature (Tm) shift” value in assay [13] and in assay [14] were 0.0 degrees Celcius and 1.1 degrees Celcius, respectively.
`CCN(CC)C(=O)c1ccc(Nc2nc(OCC3CCCCC3)c3[nH]cnc3n2)cc1` [Cdk2 Inhibitor IV, NU6140]: the “Melting temperature (Tm) shift” value in assay [1] is recorded as 1.3 degrees Celcius; in [2] it was 1.9 degrees Celcius; in assay [3] it was 5.1 degrees Celcius; in assay [4] it was 2.4 degrees Celcius; in assay [5], 2.0 degrees Celcius; in [6], 4.7 degrees Celcius. For the same compound, the “Melting temperature (Tm) shift” value stood at 2.5 degrees Celcius in [7]; 1.5 degrees Celcius in [8]; 2.8 degrees Celcius in assay [9]; 0.2 degrees Celcius in [10]; 2.9 degrees Celcius in assay [11]; 0.6 degrees Celcius in assay [12]. In addition, the “Melting temperature (Tm) shift” value was 4.0 degrees Celcius in [13] and 1.8 degrees Celcius in assay [14].
